Some test systems named below: LOX IMVI melanoma; HOP-62 NSCLC; HCT-15 colon; SK-MEL-5 melanoma; MOLT-4 leukemia; MALME-3M melanoma; OVCAR-8 ovarian; DU-145 prostate; SN12C renal; U251 CNS.
Common to all, as to test: NCI tumour cell line growth inhibition, 48 h

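Method: 48-hour compound exposure of cells in 96-well plates, five concentrations, linear interpolation of endpoints. Abbreviation: GI50, concentration required for 50% inhibition of growth. The concentration for full growth arrest is given as TGI.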

`CN1CCN(Cc2ccc(NC(=O)c3cncc(C#Cc4cnc5cccnn45)c3)cc2C(F)(F)F)CC1`: the GI50 was 1070 nM in the assay on LOX IMVI melanoma; 1360 nM in the assay on HOP-62 NSCLC; 1470 nM with HCT-15 colon; 1060 nM in the assay on SK-MEL-5 melanoma; 1420 nM with MOLT-4 leukemia; 595 nM with MALME-3M melanoma. In addition, the GI50 is 1660 nM with OVCAR-8 ovarian, 1540 nM in the assay on DU-145 prostate, 1260 nM in the assay with SN12C renal and 1480 nM in the assay with U251 CNS. Moreover, the TGI in the assay with LOX IMVI melanoma is 2980 nM; with HOP-62 NSCLC, 5080 nM; in the assay on HCT-15 colon, 5300 nM; in the assay with SK-MEL-5 melanoma it was 2420 nM; in the assay with MOLT-4 leukemia it was 5340 nM; in the assay with MALME-3M melanoma it was 1420 nM. The TGI with OVCAR-8 ovarian amounted to 6300 nM; in the assay on DU-145 prostate, 5340 nM; in the assay with SN12C renal it was 5200 nM; with U251 CNS it was 5420 nM.
With `O=C(Nc1cccc(C(F)(F)F)c1)Nc1cc(S(=O)(=O)NC2CC2)ccc1-c1ccsc1`, the GI50 in the assay on LOX IMVI melanoma is 4500 nM; in the assay with HOP-62 NSCLC it was 5110 nM; with HCT-15 colon it was 3270 nM; with SK-MEL-5 melanoma it was 2310 nM; in the assay with MOLT-4 leukemia, 3020 nM; with MALME-3M melanoma, 3390 nM. For the same compound, the GI50 is 4070 nM with OVCAR-8 ovarian, 5410 nM in the assay with DU-145 prostate, 4330 nM in the assay on SN12C renal and 3780 nM in the assay with U251 CNS. Further, the TGI with LOX IMVI melanoma was 16900 nM; in the assay with HOP-62 NSCLC, 18500 nM; in the assay on HCT-15 colon, 12800 nM; in the assay with SK-MEL-5 melanoma, 5650 nM; in the assay on MOLT-4 leukemia, 9530 nM; in the assay with MALME-3M melanoma, 11100 nM. The TGI in the assay on OVCAR-8 ovarian came to 18100 nM; with DU-145 prostate, 20300 nM; in the assay with SN12C renal, 18300 nM; in the assay on U251 CNS, 13600 nM.
In the case of `COc1cc2c(cc1OCCCN1CCN(CCCn3c4ccccc4c4ccccc43)CC1)N=C[C@@H]1CCCN1C2=O`, the GI50 in the assay with LOX IMVI melanoma was 93.7 nM; in the assay with HOP-62 NSCLC it was 242 nM; in the assay with HCT-15 colon, 623 nM; in the assay with SK-MEL-5 melanoma, 202 nM; in the assay with MOLT-4 leukemia, 44 nM; in the assay on MALME-3M melanoma, 102 nM. Moreover, the GI50 is 273 nM in the assay with OVCAR-8 ovarian, 33.5 nM with DU-145 prostate, 243 nM in the assay with SN12C renal and 98.5 nM in the assay with U251 CNS. The TGI in the assay on LOX IMVI melanoma stood at 426 nM; in the assay on HOP-62 NSCLC, 2460 nM; with HCT-15 colon, 2150 nM; in the assay with SK-MEL-5 melanoma it was 472 nM; in the assay with MOLT-4 leukemia, 257 nM; with MALME-3M melanoma, 432 nM. Besides, the TGI with OVCAR-8 ovarian worked out at 1550 nM; in the assay on DU-145 prostate, 1140 nM; with SN12C renal, 1510 nM; in the assay on U251 CNS, 1200 nM.

These data come from PubChem BioAssay (NCI).
